Holding throughout (experiment): DTP human tumour cell line panel, 48 h
Assay [1] has as its system HCT-116 colon.
In assay [2] the test system is HOP-92 NSCLC.
For assay [3], the system named is HT29 colon.
For assay [4], the system named is KM12 colon.
Assay [5] concerns NCI-H226 lung.
The subject of assay [6] is SK-MEL-28 melanoma.
For assay [7], the system named is SNB-75 CNS.
Assay [8] relates to U251 CNS.
Assay [9] deals with UO-31 renal.
In assay [10] the test system is MDA-MB-231 breast.

The structures appear in SMILES notation. Several values for one entry are separate records, joined by “and”; a condition that tells them apart may be missing. Identical values can stand only once.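 A five-concentration, 48-hour dose response in 96-well plates underlies each endpoint, interpolated linearly between surrounding concentrations. GI50: concentration for 50% inhibition of growth. TGI: concentration producing complete growth inhibition.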

In the case of `CC(=O)OCC1OC(n2c(=S)n(-c3ccc([N+](=O)[O-])cc3)c(=O)c3ccccc32)C(OC(C)=O)C(OC(C)=O)C1OC(C)=O` (stereo unspecified), the GI50 (in general, the concentration that inhibits growth by half) is 18.1 µM and 25.2 µM in assay [1]; 21.9 µM in [2]; 25.5 µM and 17.4 µM in [4]; 10.1 µM and 20.4 µM in assay [5]; 31 µM and 20.7 µM in assay [6]; 7.28 µM and 19 µM in assay [7]. The GI50 in assay [9] is 12 µM and 23.2 µM. The TGI – broadly, the concentration at which net growth stops – in assay [1] is over 100 µM; in assay [2] it was > 91.6 µM and 47.4 µM; in [3], over 100 µM; in assay [4], > 75.4 µM and 46.9 µM; in [5] it was 58.4 µM and 49 µM; in assay [6], > 82.5 µM and 59.7 µM. Moreover, the TGI in assay [7] is 51 µM and 41.2 µM; in assay [8], 42 µM and 37.8 µM; in [9], > 57.5 µM and 60.1 µM.
As for `CC(C)(CN1C(=O)C(Cl)=C(Cl)C1=O)CN1C(=O)C(Cl)=C(Cl)C1=O`, the TGI came out at 27.9 µM in assay [1]; 18.1 µM in assay [2]; 42 µM in assay [3]; 57.4 µM in [4]; 53.4 µM in [5]; 20 µM in [6]. For the same molecule, the TGI in [7] was found to be 50.7 µM; in [8], 38.7 µM; in assay [9] it was 47.2 µM.
Take `CCOC(=O)c1c(-c2ccccc2)[n+](=O)c2cc(Cl)c(Cl)cc2n1[O-]`: the GI50 in [1] is 2.57 µM; in assay [2], 2.09 µM; in assay [3] it was 12 µM; in assay [4], 1.31 µM; in [10], 2.09 µM; in assay [6] it was 13.7 µM. Further, the GI50 in assay [7] is 8.7 µM; in assay [8] it was 2.33 µM; in [9], 3.03 µM. Further, the TGI was determined as 11.1 µM in assay [1]; 4.6 µM in assay [2]; 36.3 µM in assay [3]; 2.77 µM in assay [4]; 5.55 µM in assay [10]; 36.3 µM in [6]. Also, the TGI was 30.2 µM in assay [7], 6.01 µM in [8] and over 100 µM in assay [9].
For the molecule `COc1cc(CNCCCCCCN2C(=O)c3cccc4cccc(c34)C2=O)ccc1O`, the GI50 is 3.14 µM in [1]; 2.46 µM in [2]; 2.62 µM in assay [3]; 5.57 µM in assay [4]; 5.84 µM in assay [10]; 2.06 µM in assay [6]. Also, the GI50 in assay [7] was 10.5 µM; in assay [8], 4.51 µM; in [9], 2.65 µM. The TGI came out at 11.2 µM in [1]; 17.5 µM in [2]; 10.1 µM in assay [3]; 18.9 µM in assay [4]; 19.6 µM in assay [10]; 4.31 µM in [6]. The TGI in [7] turned out to be 22.4 µM; in assay [8], 17.3 µM; in assay [9] it was 15.2 µM.
Take `Cc1nc(N)nc(N)c1CCCCc1ccc(N)cc1`: the TGI in assay [1] was 13.4 µM; in assay [2], 18 µM; in [3], 15.1 µM; in assay [4], 21.7 µM; in assay [5] it was 56.1 µM; in assay [6], 23.5 µM. Further, the TGI was 29.3 µM in [7], 17.6 µM in assay [8] and over 100 µM in [9].
With `CN(C)CCNC(=O)c1cccc2c1nc(-c1ccc(F)cc1)c1ccccc12`, the TGI in [1] came out at 13.4 µM; in [2] it was 9.89 µM; in assay [3] it was 15.1 µM; in [4], 19.3 µM; in [5] it was 9.31 µM; in assay [6], 20.3 µM. In addition, the TGI in [7] stood at 22.8 µM; in assay [8], 16.5 µM; in [9], 4.51 µM.
On to `N#CCCn1[nH]c(=O)c(Cl)c(Cl)c1=O`, for which the TGI in assay [1] is 29.1 µM; in [2], 16.6 µM; in [3], 24.2 µM; in assay [4] it was 32.1 µM; in assay [5], 49.4 µM; in [6], 30.9 µM. For the same molecule, the TGI in assay [7] was found to be 26.7 µM; in assay [8], 30.3 µM; in assay [9], 34.7 µM.
Consider `CCOC(=O)CSc1cc(Cl)c(C)cc1S(=O)(=O)/N=C(/N=C/c1ccc([N+](=O)[O-])s1)NNC`, for which the GI50 in assay [1] was 13.5 µM; in [2], 13.2 µM; in assay [3], 15 µM; in [4], 18.5 µM; in [10], 11.7 µM; in assay [5], 33.1 µM. Besides, the results for the GI50 in assay [6], in [8] and in assay [9] were 16.1 µM, 17 µM and 36.6 µM, respectively. The TGI in assay [1] worked out at 26.3 µM; in [2] it was 54.6 µM; in [3], 28.2 µM; in assay [4], 42.2 µM; in assay [10] it was 29.7 µM; in assay [5], 75.8 µM. Further, the TGI is 29.7 µM in [6], 38.7 µM in assay [8] and over 100 µM in [9].
